Target: T1, glucocerebrosidase (Gcase) (Homo sapiens, UniProt P04062)
T1 sequence (P04062 40-536): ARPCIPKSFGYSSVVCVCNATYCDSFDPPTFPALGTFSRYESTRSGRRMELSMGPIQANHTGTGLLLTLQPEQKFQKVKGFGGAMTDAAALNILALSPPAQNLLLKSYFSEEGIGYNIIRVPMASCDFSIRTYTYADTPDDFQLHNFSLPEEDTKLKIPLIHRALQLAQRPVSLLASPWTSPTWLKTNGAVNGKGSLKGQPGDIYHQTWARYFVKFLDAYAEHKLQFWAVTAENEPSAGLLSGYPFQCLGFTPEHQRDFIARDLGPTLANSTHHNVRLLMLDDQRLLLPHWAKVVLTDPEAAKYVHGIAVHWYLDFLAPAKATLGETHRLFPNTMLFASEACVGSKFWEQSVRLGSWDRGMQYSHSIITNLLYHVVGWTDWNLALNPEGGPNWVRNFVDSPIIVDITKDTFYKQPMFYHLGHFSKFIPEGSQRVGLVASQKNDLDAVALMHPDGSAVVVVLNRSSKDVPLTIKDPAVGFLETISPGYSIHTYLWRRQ
Experiment: Glucocerebrosidase (Gcase) activation assay, 4-methylumbelliferyl-beta-D-glucopyranoside substrate, with saposin C
Format: biochemical
Conditions: 10 nM GCase, 100 nM saposin C, pH 4.7
Experimental: The ability of exemplary compounds to activate glucocerebrosidase (Gcase) was measured.
A 484 μL aliquot of a 1.0 mg/mL solution of phosphatidylserine (PS) (Sigma P7769) in chloroform was evaporated under a stream of nitrogen for 1 hour. The lipid film was dissolved over 4 minutes of vigorous vortexing in 40 mL of 176 mM K2HPO4/50 mM citric acid (pH 4.7) containing 7.5 μL of triton X-100, resulting in a mixed micellar preparation with a composition of 0.32 mM triton and 0.37 mol % PS. 4-Methylumbelliferyl-beta-D-glucopyranoside (ACROS-337025000) was dissolved in the micellar solution to a final concentration of 2 mM for use as the reaction substrate.
Test compounds were diluted to the desired concentrations with dimethylsulfoxide (DMSO) from 10 mM stocks, and 0.41 μL of the DMSO compound mixture was added to 100 μL of micellar solution containing 10 nM GCase and 100 nM saposin C (Enzo ALX-201-262-C050). Pre-incubation was allowed to occur for 30 minutes at room temperature, after which the reaction was initiated by combining 25 μL of substrate solution with 25 μL of compound/GCase/saposin mixture. The reaction proceeded for 15 minutes at room temperature and was stopped by adding 150 μL of 1M glycine, pH 12.5. The endpoint of the reaction was monitored by measuring fluorescence intensity (excitation: 365 nm; emission: 440 nm) on a SpectraMax i3 instrument (Molecular Devices). Test compounds were screened at 1.0 and 0.1 μM final concentration, and subsequent 8-point dose response curves were obtained using 3-fold dilutions from a maximum final concentration of 5 μM.
For experiments in which the test compound was used at a concentration of 1.0 μM, the symbol “+” indicates less than 30% Gcase activation; the symbol “++” indicates Gcase activation in the range of 30% up to 60%; and the symbol “+++” indicates Gcase activation greater than 60%. For experiments in which the test compound was used at a concentration of 0.1 μM, the symbol “*” indicates less than 10% Gcase activation; the symbol “**” indicates Gcase activation in the range of 10% up to 20%; and the symbol “***” indicates greater than 20% Gcase activation.

Row | Percent Gcase Activation 0.1 μM Test Compound | Percent Gcase Activation 1 μM Test Compound | Compound
1 | * (less than 10% Gcase activation) | + (less than 30% Gcase activation) | Cc1cc(C)n2ncc(CNc3ccc(-c4cocn4)cc3)c2n1 [III-37]
2 | *** (greater than 20% Gcase activation) | +++ (Gcase activation greater than 60%) | Cc1cc(C)n2ncc(C(=O)Nc3ccc(-c4cccs4)cc3)c2n1 [III-39]
3 | * (less than 10% Gcase activation) | + (less than 30% Gcase activation) | Cc1cc(C)n2ncc(C(=O)Nc3ccc4[nH]c(C)cc4c3)c2n1 [III-40]
4 | * (less than 10% Gcase activation) | + (less than 30% Gcase activation) | Cc1cc(C)n2ncc(C(=O)Nc3ccc4[nH]ncc4c3)c2n1 [III-41]
5 | * (less than 10% Gcase activation) | + (less than 30% Gcase activation) | Cc1cc(C)n2ncc(C(=O)Nc3ccc4cn[nH]c4c3)c2n1 [III-42]
6 | * (less than 10% Gcase activation) | + (less than 30% Gcase activation) | Cc1cc(C)n2ncc(C(=O)Nc3ccc4nc(C)oc4c3)c2n1 [III-44]
7 | * (less than 10% Gcase activation) | + (less than 30% Gcase activation) | Cc1cc(C)n2ncc(C(=O)Nc3ccc4nc(C)[nH]c4c3)c2n1 [III-45]
8 | * (less than 10% Gcase activation) | + (less than 30% Gcase activation) | Cc1cc(C)n2ncc(C(=O)Nc3ccc4c(c3)CCNC4)c2n1 [III-46]
9 | * (less than 10% Gcase activation) | + (less than 30% Gcase activation) | Cc1cc(C)n2ncc(C(=O)Nc3ccc4oncc4c3)c2n1 [III-47]
10 | * (less than 10% Gcase activation) | + (less than 30% Gcase activation) | Cc1cc(C)n2ncc(C(=O)Nc3ccc4[nH]c(-c5ccco5)nc4c3)c2n1 [III-49]
11 | *** (greater than 20% Gcase activation) | +++ (Gcase activation greater than 60%) | Cc1cc(C)n2ncc(C(=O)Nc3ccc(-c4ccco4)cc3)c2n1 [III-55]
12 | * (less than 10% Gcase activation) | + (less than 30% Gcase activation) | Cc1cc(C)n2ncc(C(=O)Nc3ccc(-c4ccncc4)cc3)c2n1 [III-56]
13 | *** (greater than 20% Gcase activation) | +++ (Gcase activation greater than 60%) | Cc1cc(C)n2ncc(C(=O)NC3CCCc4ccccc43)c2n1 (stereo not shown) [III-58]
14 | * (less than 10% Gcase activation) | +++ (Gcase activation greater than 60%) | Cc1cc(C)n2ncc(C(=O)N[C@@H](C)c3ccccc3F)c2n1 [III-60]
15 | * (less than 10% Gcase activation) | +++ (Gcase activation greater than 60%) | COc1ccccc1[C@@H](C)NC(=O)c1cnn2c(C)cc(C)nc12 [III-62]
16 | * (less than 10% Gcase activation) | + (less than 30% Gcase activation) | Cc1cc(C)n2ncc(C(=O)NC(C)C3CCC(F)(F)CC3)c2n1 (stereo not shown) [III-66]
17 | *** (greater than 20% Gcase activation) | +++ (Gcase activation greater than 60%) | Cc1cc(Cl)nc2c(C(=O)NC(C)(C)c3ccc(Cl)cc3)cnn12 [III-69]
18 | * (less than 10% Gcase activation) | +++ (Gcase activation greater than 60%) | CO[C@H]1CC[C@@H](C(C)(C)NC(=O)c2cnn3c(C)cc(C)nc23)CC1 [III-72]
19 | * (less than 10% Gcase activation) | + (less than 30% Gcase activation) | Cc1cc(C)n2ncc(C(=O)Nc3ccc4c(c3)C(C3=NCCN3)CCC4)c2n1 (stereo not shown) [III-73]
20 | * (less than 10% Gcase activation) | + (less than 30% Gcase activation) | C#Cc1ccc(NCc2cnn3c(C)cc(C)cc23)cc1 [III-74]

Row | Compound | Percent Gcase Activation 0.1 μM Test Compound | Percent Gcase Activation 1 μM Test Compound
21 | Cc1cc(C)n2ncc(C(=O)Nc3ccc(N=[N+]=[N-])cc3)c2n1 [III-38] | * (less than 10% Gcase activation) | ++ (Gcase activation in the range of 30% up to 60%)
22 | Cc1cc(C)n2ncc(C(=O)Nc3ccc4nc(C)sc4c3)c2n1 [III-50] | * (less than 10% Gcase activation) | ++ (Gcase activation in the range of 30% up to 60%)
23 | Cc1cc(C)n2ncc(C(=O)Nc3ccc(Cl)c(COc4cccnc4)c3)c2n1 [III-51] | ** (Gcase activation in the range of 10% up to 20%) | +++ (Gcase activation greater than 60%)
24 | Cc1cc(C)n2ncc(C(=O)Nc3ccc(C)c(-c4ncco4)c3)c2n1 [III-52] | ** (Gcase activation in the range of 10% up to 20%) | +++ (Gcase activation greater than 60%)
25 | Cc1cc(C)n2ncc(C(=O)Nc3ccc(Cl)c(-c4cnco4)c3)c2n1 [III-53] | ** (Gcase activation in the range of 10% up to 20%) | +++ (Gcase activation greater than 60%)
26 | Cc1cc(C)n2ncc(C(=O)Nc3ccc(-c4cnn(C)c4)cc3)c2n1 [III-54] | * (less than 10% Gcase activation) | ++ (Gcase activation in the range of 30% up to 60%)
27 | CCCCCO[C@H]1CC[C@H](NC(=O)c2cnn3c(C)cc(C)nc23)CC1 [III-59] | ** (Gcase activation in the range of 10% up to 20%) | +++ (Gcase activation greater than 60%)
28 | COc1ccccc1[C@H](C)NC(=O)c1cnn2c(C)cc(C)nc12 [III-61] | ** (Gcase activation in the range of 10% up to 20%) | +++ (Gcase activation greater than 60%)
29 | Cc1cc(C)n2ncc(C(=O)N[C@@H](C)c3cccc(Cl)c3)c2n1 [III-63] | ** (Gcase activation in the range of 10% up to 20%) | +++ (Gcase activation greater than 60%)
30 | Cc1cc(C)n2ncc(C(=O)N[C@H](C)c3ccc(Cl)cc3)c2n1 [III-64] | ** (Gcase activation in the range of 10% up to 20%) | +++ (Gcase activation greater than 60%)
31 | Cc1cc(C)n2ncc(C(=O)N[C@H](C)c3ccc(F)cc3)c2n1 [III-65] | * (less than 10% Gcase activation) | ++ (Gcase activation in the range of 30% up to 60%)
32 | Cc1cc(C)n2ncc(C(=O)NC(C)(C)c3ccc(Cl)cc3)c2n1 [III-67] | ** (Gcase activation in the range of 10% up to 20%) | +++ (Gcase activation greater than 60%)
33 | Cc1cc(Cl)n2ncc(C(=O)NC(C)(C)c3ccc(Cl)cc3)c2n1 [III-68] | ** (Gcase activation in the range of 10% up to 20%) | +++ (Gcase activation greater than 60%)
34 | Cc1cc(C)n2ncc(C(=O)NC(C)(C)c3ccc(F)cc3F)c2n1 [III-70] | ** (Gcase activation in the range of 10% up to 20%) | +++ (Gcase activation greater than 60%)
35 | CO[C@H]1CC[C@H](C(C)(C)NC(=O)c2cnn3c(C)cc(C)nc23)CC1 [III-71] | * (less than 10% Gcase activation) | ++ (Gcase activation in the range of 30% up to 60%)

From US11932645B2, “Substituted pyrazolo[1,5-a]pyrimidines and their use in the treatment of medical disorders” (Bial—R&D Investments, S.A., priority 2014, dated 2024)
